Measured values: patent US20080153910A1, “LYSINE IN THERAPEUTIC ANGIOGENESIS FOR CARDIAC AND CEREBRAL/NEURAL REPERFUSION” (priority 2001, published 2008)
“Also recorded” adds a separate entry of the source.

Experiments:
[1] = tested on: collagen synthesis; test: 14C-Glycine incorporation in wound tissue; assay type: in vivo; details: experimental wound, 100% (w/w) topical, 0.25 to 100 mg/sq. in
From the text: As glycine is present at every third position in the primary sequence of Collagen, ^14C-Glycine incorporation in the wound tissue was supposed to give an idea of differential collagen synthesis in experimental and control wounds.

[2] = tested on: protein synthesis; test: 35S-Methionine incorporation in acute surgical wound tissue; assay type: in vivo; details: 72 hrs post surgery, topical, vs control wound, HCl
[3] = tested on: adherent cellular growth; test: Cellular expansion in culture (in-vitro); assay type: cell-based; details: compared to l-lysine; d-Lysine about 10 mcg/ml added load
From the text: Photo 12, cell culture photographs of d-Lysine (about 10 mcg/ml of added load, in addition to the usual load of I-Lysine, whatever was there in the media as the metabolic requirement) mediated cellular expansion in culture. […] In-situ controlled and physiological expansion of constituent cells in a wound bed, including the endothelial cells and their mediation of normal angiogenic process, mediate only by lysine/derivative(s), without addition/intervention of any other additive(s), whatsoever, is the essence of present invention.

[4] = tested on: angiogenesis; test: Oligo-lysine and d-lysine induced cell expansion and angiogenesis in-vivo; details: compared to l-lysine
[5] = tested on: acute surgical wounds; test: Acute surgical wound model (full thickness skin incisions); assay type: in vivo, Rabbits
Method: Rabbits (about 1.5 Kg body wt.) from Haffkine Biopharmaceuticals, Mumbai, India were used for acute surgical wound model experimentations.
For acute surgical wound experiments, dorsal paravertebral skin was shaved in both the groups. Full thickness skin incisions (about 1 inch long) were made on either side of the vertebral column under local anaesthesia. In the experimental group, “lysine” in powder form(s) was instilled/spinkled/applied (about 10-15 mg) in each wound and the wounds were closed by single suture each to keep the edges apposed. No surface/systemic antibiotics were given to the animals dressed with “lysine”. Similar treatments were given to the control wounds except for omitting the “lysine” dressing altogether. Control wounds were protected with surface antibiotics ointment, applied at the time of each dressing. The wounds were covered with adhesive plasters in both the groups. Dressings were replaced every 48-72 hrs.
(§1) Tissue biopsies were taken from both groups—either animals or human beings—from appropriate wound site(s)/cardiac tissue (myocardium) at various time points post surgery/applications/dressings with the active ingredient(s), fixed at room temp. for 24 hrs. in formal saline (4% v/v). Tissue sections were stained with haematoxylin and eosin and observed under light microscope.
For examination of wound tissues under scanning electron microscope, skin tissues were taken (about 1.5 inch square) surgically under local anaesthesia in such a way that the original wound incision lied at the center of this piece of skin tissue, which was fixed in formal saline (4%) for 24 hrs at room temp. and pressure. Before mounting on to the observation stub with the help of a double faced adhesive tape, the wet tissues were dried adequately first with tissue papers and then at 37 degree Centrigrade incubator for about 2 hrs. Finally the dried tissues were cut with scissors in such a way that the cut line in each case was perpendicular to the original incision line. The finally prepared samples were gold coated in a hummer for around 4 minutes in vacuum and examined in a scanning electron microscope (Jeol).

[6] = tested on: chronic wounds; test: Controlled open trial of lysine in chronic human wounds; assay type: in vivo
From the text: Chronic wounds of different anatomical locations as well as etiology were included in the controlled open trial of “lysine” for it's/their ability to induce angiogenesis and induction of the healthy granulation tissue formation in these chronic wounds. These included diabetic wounds and ulcers of various durations and severity, bed sores and pressure sores of various durations, infected wounds and cellulitic wounds of various origins, burns of different degrees and extents—both infected and otherwise, amputations, skingrafts, venous ulcers and even leprotic wounds and ulcers of long standing.
The wounds were debrided manually with gauge pieces soaked in normal saline to the point of bleeding of smaller vessels at the base of the wounds (wound-bed). Some of the chronic wounds were debrided surgically depending on the severity of the wound condition(s). Dressings were done with adequate amounts of the amino acid and/derivative(s) applied to the wound site(s) topically/locally. Wounds were closed with moistened gauge piece and adhesive tapes and the procedure repeated every 72-96 hrs. This approach constituted the experimental group subjects. In the control groups, conventional therapy were instituted both in terms of surgical/manual/enzymatic debridements as well as applying usual medications e.g. betadine, salutyl (a preparation which removes ischaemia by inducing angiogenesis in ischaemic wounds), trypsin, chymotrypsin, metronidazole preparations, silver sulfadiazine, regranex (a PDGF based healing agent containing “small” amount of the cationic amino acid lysine as “stabilizing agent”, along with quite a few other additives and ingredients), various surface antibiotics etc., depending on the clinical condition in question.
as §1

[7] = tested on: ischaemic myocardium; test: Cardiac angiogenesis / coronary ischaemia model; assay type: in vivo, sheep
Method: For cardiac angiogenesis experiments, healthy immunized adult sheep, weighing 20-30 Kgs were selected. The selected animals underwent routine blood tests and echocardiography prior to surgery which acted as the base line data. Under general anaesthesia, 4 sheep were operated through a left thoracotomy. […] In one of the experimental animals, in addition to the intramuscular injection of lysine, about 10 ml of the saturated solution of lysine was injected at the root of the aorta through a pig-tail catheter passed retrogradely through the descending thoracic aorta. […] Post-operative echocardiogram were done in all the animals at 96 hrs post-surgery to assess the left ventricular wall motion. Two weeks post-surgery echocardiograms were done to assess left ventricular wall motion. The animals were sacrificed and autopsy of the hearts were done for examination of the degree of angiogenesis.
as §1, with “microscope. […]” for “microscope.”

[8] = tested on: hybridoma cell mass; details: compared to other physico-chemical means (Datta, D et al. 1997); cited from earlier work

Structure (SMILES): Cl.NCCCC[C@H](N)C(=O)O [L-lysine HCl]
- 14C-Glycine incorporation [1]: Comparatively low incorporation
- 35S-Methionine incorporation ([2]; listed as 100% (w/w) powder formulation): Significant difference
- 35S-Methionine incorporation ([2]; listed as amino acid): Significantly more

Structure (SMILES): NCCCC[C@@H](N)C(=O)O [d-Lysine]
- cellular expansion / growth in-vitro [3]: equally effective
- angiogenesis in-vivo [4]: equally effective
- expansion of cells in-vivo [4]: equally effective

Structure (SMILES): NCCCC[C@H](N)C(=O)O [lysine, Lysine]
- granulation tissue (scanning electron microscopy) ([5]; acute surgical incision dressed with topically applied lysine, 72 hrs post surgery): spongy granulation tissue
- dividing cells in-vivo ([5]; acute surgical incision model, systemic application): stratified layers of dividing cells
- histopathology: cellular thickening from basal keratinocyte layer ([5]; rabbit, experimental vs control wound): extensive cellular thickening from the basal keratinocyte layer
- granulation tissue (scanning electron microscopy) ([5]; systemic lysine, i.p. injection, 5 ml, 5 mg/ml): spongy granulation tissue in the vicinity of the incision
- in-situ tissue repair ([6]; all types of acute and chronic wounds of both animal and human origin): excellent tissue regeneration in-situ
- granulation tissue / angiogenic response ([6]; bed sore, about two weeks of topical application): Extensive granulation tissue and profuse angiogenic response
- time to skin graft ([6]; cellulitic wound following 3rd degree burn): around two weeks
- granulation/angiogenic tissue in wound bed ([6]; cellulitic wound following 3rd degree burn, 11th day post initiation of therapy): extensive granulation/angiogenic tissue
- granulation/angiogenesis ([6]; cellulitic wound following 3rd degree burn, third day of topical therapy): reasonable granulation/angiogenesis
- blood cell intravasation in the wound area ([6]; chronic diabetic ulcer, around 11th day post initiation of therapy): extensive blood cell intravasation
- glandular structures (histopathology) ([6]; chronic diabetic ulcer, topical): healthy glandular structures
- angiogenic response (histopathology) ([6]; chronic human wounds, topical): profuse angiogenic response; also recorded: Extensive angiogenic response
- time to skin graft (clinical end point) ([6]; chronic stump wound): around two weeks
- granulation ([6]; chronic stump wound, within two weeks of topical therapy): extensive granulation
- Keratinocyte layer thickening (histopathology) ([6]; experimental wounds of human origin): very advanced degree of Keratinocyte layer thickening
- time to ready for skin graft ([6]; infected third degree burn, post institution of therapy): 13 days
- induction of granulation tissue/angiogenesis ([6]; infected third degree burn, within around two weeks): remarkable induction of granulation tissue/angiogenesis
- granulation/angiogenesis ([6]; leprotic wound (about 3 yr old), topical): very good granulation/angiogenesi-s
- reduction in size ([6]; leprotic wound, about 12 weeks topical treatment): about 60%
- time to initiation of repair-by-in-situ-regeneration ([6]; topical and/or systemic therapy): 72 to 96 h
- time to first appearance of healthy granulation tissue ([6]; wounds of different locations, origins and durations): 72 to 96 h
- echocardiography: movement of myocardium in ischaemic zones ([7]; 96 hrs post surgery): definite non-asynchronous movement of the myocardium
- hierarchical nature of the angiogenic response ([7]; 21 days post surgery): capillaries filled with blood cells
- angiogenic response in ischaemic cardiac muscle tissue ([7]; 21 days post surgery, vs control): extensive angiogenic response
- histopathology: angiogenic response ([7]; around two-weeks, vs control): advanced degree of matured angiogenic response
- expansion of biomass (cell population) [8]: expand the biomass (cell population) at the least possible time
